Among the data in PubChem BioAssay (NCI) are TGI values, retold here.

SMILES strings stand for the structures.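 Tested at 5 concentrations; 48 h exposure; 96-well plates; endpoints linearly interpolated, else capped at highest concentration. TGI: concentration producing complete growth inhibition.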

Common to all, as to experiment: NCI anticancer screen, dose series, 48 h
Assay [1] has as its system EKVX NSCLC.
For assay [2], the system named is HCT-15 colon.
Assay [3] relates to IGROV1 ovarian.
Assay [4] deals with KM12 colon.
Assay [5] deals with MDA-MB-231 breast.
The subject of assay [6] is OVCAR-5 ovarian.
In assay [7] the test system is SF-268 CNS.
Assay [8] deals with SK-OV-3 ovarian.

As to `N#Cc1c(-c2ccc(Cl)cc2)[nH]c(=O)n(C2OC(CO)C(O)C(O)C2O)c1=O` (stereo not drawn), the TGI in assay [1], in assay [2], in assay [3], in assay [4], in assay [5] and in assay [6] was greater than 100 µM throughout. For the same molecule, the TGI in assay [7] and in assay [8] was greater than 100 µM throughout.

For the molecule `Cc1ccc(S(=O)(=O)Oc2nc3ccccc3nc2OS(=O)(=O)c2ccc(C)cc2)cc1`, the TGI in assay [1], in assay [2], in assay [3], in assay [4], in assay [5] and in assay [6] was greater than 100 µM throughout. In addition, the TGI in assay [7] and in assay [8] was greater than 100 µM each time.

For `CN(C)CCn1c(=O)c2ccc(NCCN3CCNCC3)c3c(=O)c4ccccc4n(c1=O)c23`, the TGI was determined as 18.6 µM in assay [1]; 25.3 µM in assay [2]; 12.1 µM in assay [3]; 16.4 µM in assay [4]; 11.8 µM in assay [5]; 42.1 µM in assay [6]. Besides, the TGI amounted to 18.7 µM in assay [7] and 24.6 µM in assay [8].

As for `O=c1ccn(COC(COCc2ccccc2)COCc2ccccc2)c(=O)[nH]1`, the TGI in assay [2], in assay [3], in assay [4], in assay [5], in assay [6] and in assay [8] was greater than 100 µM in each case.

Regarding `O=C1CSC(c2ccccc2[N+](=O)[O-])N1c1ccc(-c2ccc(-n3c(-c4ccccc4)nc4ccccc4c3=O)cc2)cc1` (stereo not drawn), the TGI in assay [1], in assay [2], in assay [3], in assay [4], in assay [5] and in assay [6] was greater than 100 µM throughout. The TGI in assay [7] and in assay [8] was greater than 100 µM each time.

As to `O=C(CN1CCOCC1)c1ccc2c(c1)oc(=O)n2CCN1CCOCC1`, the TGI in assay [1], in assay [3], in assay [4], in assay [5], in assay [6] and in assay [7] was greater than 100 µM in each case. The molecule further showed a TGI in assay [8] greater than 100 µM.

On to `CCOc1ccc(N/C(=C(/C(Cl)=C(/Cl)N2CCCCC2)[N+](=O)[O-])n2nnc3ccccc32)cc1`, for which the TGI in assay [1] is 36.9 µM; in assay [2] it was 29 µM; in assay [4], 31.6 µM; in assay [5] it was 44.5 µM; in assay [6], 32.5 µM; in assay [7], 37.4 µM. The same molecule had a TGI in assay [8] of 82 µM.

With `COC1CN(C)C(=Nc2cccc3ccccc23)S1` (stereo not drawn), the TGI in assay [2], in assay [3], in assay [4], in assay [5], in assay [6] and in assay [7] was greater than 10 µM throughout. Also, the TGI in assay [8] is greater than 10 µM.

Take `Cc1ccc(/C(O)=C/C(=O)C(=O)NC23CC4CC(CC(C4)C2)C3)cc1`: the TGI in assay [1], in assay [2], in assay [4], in assay [5], in assay [7] and in assay [8] was greater than 10 µM each time.

Regarding `CC[C@@]1(C)CCC2c3ccc(O)cc3CC[C@H]2C1C` (stereo partly drawn), the TGI in assay [1] came to 34 µM; in assay [2] it was 31.4 µM; in assay [3], 38.1 µM; in assay [4], 36.7 µM; in assay [6] it was 33.3 µM; in assay [7], 30.1 µM.

`NCCCC[C@H](N)C(=O)Nc1ccc(-c2nc3ccccc3s2)cc1`: the TGI in assay [1] is 23.9 µM; in assay [2], 33.7 µM; in assay [3] it was 31.5 µM; in assay [4] it was 34.9 µM; in assay [5], 37.6 µM; in assay [6] it was 33.2 µM. For the same molecule, the values for the TGI in assay [7] and in assay [8] were 55.6 µM and 39.2 µM, respectively.

Take `CC(=O)Nc1ccc2c3c(cc(O)c2c1)N(C(=O)CCCCCCC(=O)N1CC(CCl)c2c1cc(O)c1cc(NC(C)=O)ccc21)CC3CCl` (stereo not drawn): the TGI in assay [1] was determined as 0.475 µM; in assay [2], 3.59 µM; in assay [3], 0.499 µM; in assay [4], 12.7 µM; in assay [6], 0.243 µM; in assay [7], 0.464 µM. Besides, the TGI in assay [8] was determined as 12.4 µM.

In the case of `CCC(=O)Nc1ccc(NC(C#N)c2cccc(Oc3ccccc3)c2)cc1` (stereo not drawn), the TGI in assay [1], in assay [2], in assay [3], in assay [4], in assay [6] and in assay [7] was greater than 100 µM each time. The molecule also returned a TGI in assay [8] greater than 100 µM.

As to `CN1C(=O)C2(C=CC(O)CC2)c2ccccc21` (stereo not drawn), the TGI in assay [1], in assay [2], in assay [3], in assay [4], in assay [5] and in assay [6] was greater than 100 µM each time. The TGI in assay [7] and in assay [8] was greater than 100 µM throughout.

Turning to `CC(C)NC(=O)N(Nc1ccccc1)C(C)(C)C`, the TGI in assay [1], in assay [2], in assay [3], in assay [4], in assay [5] and in assay [6] was greater than 100 µM throughout. In assay [8], the TGI is greater than 100 µM.

With `O=c1[nH]nc(-c2ccccc2)n1/N=C/c1cccs1`, the TGI in assay [1], in assay [2], in assay [4], in assay [5], in assay [6] and in assay [7] was greater than 100 µM each time. This molecule gave a TGI in assay [8] greater than 100 µM.

Take `COc1ccc(CCCNC(=O)c2cc(OC)c(OC)cc2CCO)cc1OC`: the TGI in assay [1], in assay [2], in assay [3], in assay [4], in assay [5] and in assay [6] was greater than 100 µM throughout. Also, the TGI in assay [7] and in assay [8] was greater than 100 µM each time.
